Data taken from US20150031102A1, “METHODS AND COMPOSITIONS FOR ENHANCED PRODUCTION OF BUTANOL BY CLOSTRIDIA” (Butrolix LLC, priority 2012, published 2015).

System: Clostridium acetobutylicum strain ATCC 824
Assay: Sequential batch transfer in 24-well culture plates (butanol, residual glucose, butanol yield and productivity)
Type: cell-based
Settings: for Residual glucose concentration: initial glucose 60 g/L
Description: Each well contained 1.5 mL of growth medium. Peptide was added to each well at the indicated concentration (0, 25, 50, and 100 nM). Every 24 hours fresh medium and peptide treatment were added to a new column of wells then 1.5 μL of the previous day culture was transferred to the new well. Wells were harvested for glucose and butanol analysis after 96 hours of growth. Transfers 1, 4, 7, 10, 13, 16, […].
Briefly, Clostridium spores were germinated in a suitable growth medium for 18-24 hours then […] was transferred to 1.5 mL of fresh medium in each of four wells on a 24-well culture plate. Three of the wells had been treated with 25 nM, 50 nM and 100 nM of peptide, respectively while the fourth well was untreated. Thereafter, every 24 hours […] of each subculture was transferred to 1.5 mL of fresh medium that contained the same peptide treatment or no treatment. Transfers of successive subcultures were done for 24 days, and each subculture was grown for 96 hours before being harvested. Culture supernatants were recovered following centrifugation and were analyzed for butanol and residual glucose concentrations. Determination of optimum peptide treatment levels was based on a graphical comparison of the concentration of butanol in each of the four culture wells for sequential transfers 1, 4, 7, 10, 13, 16, 19, 22 and 24.
Clostridium acetobutylicum strain ATCC 824 was used in all experiments and the growth medium used for sequential batch transfer, time course, and continuous culture experiments contained yeast extract, casamino acids, L-cysteine, L-asparagine, phosphate buffer, trace minerals, and 6% glucose. What are believed to be quorum-sensing peptides that were used in the experiments were chemically synthesized peptides SEQ ID NO: 143 (amino acid sequence: SYPGWSW) and SEQ ID NO: 144 (amino acid sequence: ILILISG). Routine growth of the bacteria as well as the sequential batch and time course experiments were conducted in a Form a Scientific Model 1029 anaerobic gas chamber at 32° C. Continuous cultures were performed at 32° C. using duplicate New Brunswick Scientific BioFlo 3000 apparati with a dilution rate of 0.01 volume per hour, 75 rpm agitation, and nitrogen gas sparging. Optical density of culture samples was measured at 600 nm in a Beckman DU 600 series spectrophotometer and glucose was analyzed using a YSI Model 2700 Select Biochemistry Analyzer with internal glucose calibration. Butanol concentrations were determined by measuring experimental and standard samples using a Varian Saturn 3 Gas Chromatograph/Mass Spectrometer and calculating butanol concentrations using standard curves.
(§1) Sequential batch transfer experiments were carried out in 24-well culture plates that contained 1.5 mL of medium per well. Peptide was added to each well at the indicated concentrations of 0 nM (control), 25 nM, 50 nM, or 100 nM. Every 24 hours, fresh medium and peptide treatments were added to a new column of wells. Then, 1.5 uL of the previous day culture was transferred to the new well. Wells were harvested for glucose and butanol analysis after 96 hours of growth; transfers 1, 4, 7, 10, 13, 16, 19, 22, and 24 were analyzed. Two representative experiments are shown in Tables 30 and 31 and FIGS. 14 and 15.
as §1, with “32” for “30”, “33” for “31”, “16” for “14”, “17.” for “15.”

[1] = 50 nM peptide, transfer 19, after 96 hours of culture, Expt. 1
[2] = 50 nM peptide, transfer 22, after 96 hours of culture, Expt. 1
[3] = 50 nM peptide, transfer 24, after 96 hours of culture, Expt. 1
[4] = 100 nM peptide, transfer 1, after 96 hours of culture, Expt. 1
[5] = 100 nM peptide, transfer 4, after 96 hours of culture, Expt. 1
[6] = 100 nM peptide, transfer 7, after 96 hours of culture, Expt. 1
[7] = 100 nM peptide, transfer 10, after 96 hours of culture, Expt. 1
[8] = 100 nM peptide, transfer 13, after 96 hours of culture, Expt. 1
[9] = 100 nM peptide, transfer 16, after 96 hours of culture, Expt. 1
[10] = 100 nM peptide, transfer 19, after 96 hours of culture, Expt. 1
[11] = 100 nM peptide, transfer 22, after 96 hours of culture, Expt. 1
[12] = 100 nM peptide, transfer 24, after 96 hours of culture, Expt. 1
[13] = BP1106213 first experiment, 25 nM, transfer 10

Substance “ILILISG (Derived from Clostridium acetobutylicum SEQ ID NO: 110) [peptide SEQ ID NO: 144]” has a Butanol concentration [1] of 8.40 g/L, a Butanol productivity [1] of 0.09 g butanol/L-h and a Butanol yield [1] of 0.14 g butanol/g/glucose. For the same substance, the Butanol concentration (50 nM peptide, transfer 19, after 96 hours of culture, Expt. 2 (repeat), Table 58) was 4.66 g/L, the Residual glucose concentration [1] was 0.0 g/L and the Residual glucose concentration (50 nM peptide, transfer 19, after 96 hours of culture, Expt. 2 (repeat), Table 45) was 49.2 g/L. It also gave a Butanol concentration [2] of 14.14 g/L, a Butanol productivity [2] of 0.15 g butanol/L-h and a Butanol yield [2] of 0.23 g butanol/g/glucose. It also gave a Butanol concentration (50 nM peptide, transfer 22, after 96 hours of culture, Expt. 2 (repeat), Table 58) of 4.22 g/L, a Residual glucose concentration [2] of 12.6 g/L and a Residual glucose concentration (50 nM peptide, transfer 22, after 96 hours of culture, Expt. 2 (repeat), Table 45) of 40.2 g/L. It also gave a Butanol concentration [3] of 6.90 g/L, a Butanol productivity [3] of 0.07 g butanol/L-h and a Butanol yield [3] of 0.11 g butanol/g/glucose. It also gave a Butanol concentration (50 nM peptide, transfer 24, after 96 hours of culture, Expt. 2 (repeat), Table 58) of 1.87 g/L, a Residual glucose concentration [3] of 43.2 g/L and a Residual glucose concentration (50 nM peptide, transfer 24, after 96 hours of culture, Expt. 2 (repeat), Table 45) of 0.0 g/L. It also gave a Butanol concentration [4] of 1.78 g/L, a Butanol productivity [4] of 0.02 g butanol/L-h and a Butanol yield [4] of 0.03 g butanol/g/glucose. It also gave a Butanol concentration (100 nM peptide, transfer 1, after 96 hours of culture, Expt. 2 (repeat), Table 58) of 1.19 g/L, a Residual glucose concentration [4] of 48.5 g/L and a Residual glucose concentration (100 nM peptide, transfer 1, after 96 hours of culture, Expt. 2 (repeat), Table 45) of 55.8 g/L. The Butanol concentration [5] was 7.17 g/L, the Butanol productivity [5] was 0.07 g butanol/L-h and the Butanol yield [5] was 0.12 g butanol/g/glucose. The Butanol concentration (100 nM peptide, transfer 4, after 96 hours of culture, Expt. 2 (repeat), Table 58) was 2.12 g/L, the Residual glucose concentration [5] was 0.0 g/L and the Residual glucose concentration (100 nM peptide, transfer 4, after 96 hours of culture, Expt. 2 (repeat), Table 45) was 49.9 g/L. The Butanol concentration [6] was 5.62 g/L, the Butanol productivity [6] was 0.06 g butanol/L-h and the Butanol yield [6] was 0.09 g butanol/g/glucose. For the same substance, the Butanol concentration (100 nM peptide, transfer 7, after 96 hours of culture, Expt. 2 (repeat), Table 58) was 2.11 g/L, the Residual glucose concentration [6] was 0.0 g/L and the Residual glucose concentration (100 nM peptide, transfer 7, after 96 hours of culture, Expt. 2 (repeat), Table 45) was 49.4 g/L. For the same substance, the Butanol concentration [7] was 7.91 g/L, the Butanol productivity [7] was 0.08 g butanol/L-h and the Butanol yield [7] was 0.13 g butanol/g/glucose. The Butanol concentration (100 nM peptide, transfer 10, after 96 hours of culture, Expt. 2 (repeat), Table 58) was 2.07 g/L, the Residual glucose concentration [7] was 0.1 g/L and the Residual glucose concentration (100 nM peptide, transfer 10, after 96 hours of culture, Expt. 2 (repeat), Table 45) was 51.2 g/L. It also gave a Butanol concentration [8] of 6.37 g/L, a Butanol productivity [8] of 0.07 g butanol/L-h and a Butanol yield [8] of 0.11 g butanol/g/glucose. For the same substance, the Butanol concentration (100 nM peptide, transfer 13, after 96 hours of culture, Expt. 2 (repeat), Table 58) was 1.54 g/L, the Residual glucose concentration [8] was 0.1 g/L and the Residual glucose concentration (100 nM peptide, transfer 13, after 96 hours of culture, Expt. 2 (repeat), Table 45) was 49.7 g/L. For the same substance, the Butanol concentration [9] was 7.11 g/L, the Butanol productivity [9] was 0.07 g butanol/L-h and the Butanol yield [9] was 0.12 g butanol/g/glucose. It also gave a Butanol concentration (100 nM peptide, transfer 16, after 96 hours of culture, Expt. 2 (repeat), Table 58) of 5.68 g/L, a Residual glucose concentration [9] of 0.1 g/L and a Residual glucose concentration (100 nM peptide, transfer 16, after 96 hours of culture, Expt. 2 (repeat), Table 45) of 0.0 g/L. For the same substance, the Butanol concentration [10] was 5.55 g/L, the Butanol productivity [10] was 0.06 g butanol/L-h and the Butanol yield [10] was 0.09 g butanol/g/glucose. It also gave a Butanol concentration (100 nM peptide, transfer 19, after 96 hours of culture, Expt. 2 (repeat), Table 58) of 2.61 g/L, a Residual glucose concentration [10] of 0.0 g/L and a Residual glucose concentration (100 nM peptide, transfer 19, after 96 hours of culture, Expt. 2 (repeat), Table 45) of 0.0 g/L. The Butanol concentration [11] was 13.86 g/L, the Butanol productivity [11] was 0.14 g butanol/L-h and the Butanol yield [11] was 0.23 g butanol/g/glucose. The Butanol concentration (100 nM peptide, transfer 22, after 96 hours of culture, Expt. 2 (repeat), Table 58) was 3.41 g/L, the Residual glucose concentration [11] was 0.6 g/L and the Residual glucose concentration (100 nM peptide, transfer 22, after 96 hours of culture, Expt. 2 (repeat), Table 45) was 0.1 g/L. For the same substance, the Butanol concentration [12] was 7.20 g/L, the Butanol productivity [12] was 0.07 g butanol/L-h and the Butanol yield [12] was 0.12 g butanol/g/glucose. The Butanol concentration (100 nM peptide, transfer 24, after 96 hours of culture, Expt. 2 (repeat), Table 58) was 3.29 g/L, the Residual glucose concentration [12] was 0.1 g/L and the Residual glucose concentration (100 nM peptide, transfer 24, after 96 hours of culture, Expt. 2 (repeat), Table 45) was 0.1 g/L. The “Increase in butanol yield” value (BP1106213, batch cultures (summary of findings)) was “more than 50%”, the “Transfers over which butanol production was enhanced” value (BP1106213, sequential batch cultures (summary of findings)) was “transfer 4 through transfer 16” and the Butanol productivity [13] was 0.12 g butanol/1-hour. For the same substance, the Butanol yield [13] was 0.20 g butanol/g glucose, the “Butanol yield and productivity greater than untreated control” value [13] was “more than 50%” and the “Effect on butanol production versus untreated control” value (BP1106213 first experiment, 100 nM) was “generally resulted in decreased butanol production, or no difference from the untreated control”. For the same substance, the Glucose consumption (BP1106213 first experiment, all treated and untreated cultures, transfer 4 through transfer 19) was ~100%, the “Effect on butanol production versus untreated control” value (BP1106213 repeated (second) experiment, on the whole) was “inhibit butanol production” and the “Increase in butanol over untreated control” value (SEQ ID NO: 144 first experiment, 25 nM, transfer 4) was 31%. For the same substance, the “Increase in butanol over untreated control” value (SEQ ID NO: 144 first experiment, 25 nM, transfer 10) was 57%, the “Increase in butanol over untreated control” value (SEQ ID NO: 144 first experiment, 25 nM, transfer 16) was 21% and the “Increase in butanol over untreated control” value (SEQ ID NO: 144 first experiment, 50 nM, transfer 4) was 25%. For the same substance, the “Increase in butanol over untreated control” value (SEQ ID NO: 144 first experiment, 50 nM, transfer 10) was 46%, the “Increase in butanol over untreated control” value (SEQ ID NO: 144 first experiment, 50 nM, transfer 16) was 35% and the “Increase in butanol over untreated control” value (SEQ ID NO: 144 second experiment, 25 nM, transfer 13) was 283%. For the same substance, the “Increase in butanol over untreated control” value (SEQ ID NO: 144 second experiment, 25 nM, transfer 16) was 10%, the “Increase in butanol over untreated control” value (SEQ ID NO: 144 second experiment, 50 nM, transfer 13) was 85% and the “Effect on differentiation and butanol production” value (some sequential cultures) was “inducer of differentiation and butanol production”.
